From patent US20070140979A1, “Method for accelerating the rate of mucociliary clearance” (BAYER AKTIENGESELLSCHAFT, priority 1998, published 2007)

Molecular target: Bovine chymotrypsin (Bos taurus, UniProt P00766)
Experiment: Inhibition of chymotrypsin, Ki
Type: biochemical
Conditions: Chymotrypsin (5 nM)

Ki: 6 nM
SMILES: CC[C@H](C)[C@H](N)C(=O)N[C@@H](Cc1c[nH]cn1)C(=O)N[C@@H](CC(=O)O)C(=O)N[C@@H](Cc1ccccc1)C(=O)N[C@H]1CSSC[C@@H](C(=O)N[C@@H](C)C(=O)N[C@H](C(=O)N[C@H](C(=O)O)C(C)C)[C@@H](C)O)NC(=O)[C@H](CCCCN)NC(=O)[C@H](CCCCN)NC(=O)[C@H](CC(C)C)NC(=O)[C@@H]2CSSC[C@@H]3NC(=O)[C@H](CO)NC(=O)CNC(=O)[C@H](CC(=O)O)NC(=O)[C@H]([C@@H](C)O)NC(=O)[C@H](C(C)C)NC(=O)[C@H](CC(N)=O)NC(=O)[C@H](Cc4ccc(O)cc4)NC(=O)[C@H](Cc4c[nH]c5ccccc45)NC(=O)[C@H](Cc4c[nH]c5ccccc45)NC(=O)[C@H](CCCNC(=N)N)NC(=O)[C@@H]4CCCN4C(=O)[C@H](CCSC)NC(=O)[C@H](CO)NC(=O)[C@H](C)NC(=O)[C@H](CCCNC(=N)N)NC(=O)[C@H](CSSC[C@H](NC(=O)CNC(=O)CNC(=O)[C@H](Cc4ccc(O)cc4)NC(=O)[C@H](C(C)C)NC(=O)[C@H](Cc4ccccc4)NC(=O)[C@H](CC(C)C)NC(=O)[C@H](CCC(N)=O)NC3=O)C(=O)N[C@@H](CC(=O)O)C(=O)NCC(=O)N[C@@H](CC(N)=O)C(=O)N[C@@H](CO)C(=O)N[C@@H](CC(N)=O)C(=O)N[C@@H](CC(N)=O)C(=O)N[C@@H](Cc3ccc(O)cc3)C(=O)N[C@@H](CC(C)C)C(=O)N[C@@H]([C@@H](C)O)C(=O)N[C@@H](CCCCN)C(=O)N[C@@H](CCC(=O)O)C(=O)N[C@@H](CCC(=O)O)C(=O)N2)NC(=O)[C@H](CCCNC(=N)N)NC(=O)CNC(=O)[C@H](C(C)C)NC(=O)[C@H](C(C)C)NC(=O)[C@H](CCCCN)NC(=O)[C@H](CO)NC(=O)[C@H](C(C)C)NC(=O)[C@H](CC(C)C)NC1=O [bikunin (7-64)]
